Measurements: US20090252674A1, “Tripodal Ligands with the Coordinating Motifs K2 -BH2 or K3 -BH3 Relevant for Biomedical Applications of Organometallic Complexes” (Mallinckrodt Inc., priority 2005, published 2009)

Assay: HPLC analysis of the 6a preparation at different intervals of time (stability under physiologic conditions)
Type: physicochemical
Conditions: PBS, pH 7.4
Experimental: In a nitrogen-purged glass vial, 100 μL of a 2.5×10^−2 M aqueous solution of ligand 1 were added to 400 μL (7.5 mCi) of the organometallic precursor fac−[^99mTc(OH2)3(CO)3]^+, and the mixture was incubated at room temperature for 30 min. After this time, complex 6a has been obtained in 90% yield, as checked by gradient HPLC analysis (from 100% aqueous 0.1% CF3COOH solution to 100% CH3CN) using a Nucleosil column (10:m, 250 mm×4 mm). The chemical identity of 6a was confirmed by comparing its HPLC chromatogram with the HPLC profile of the analogue Re complex (6) (Retention time: Re, 25.78 min; ^99mTc, 26.28 min). HPLC analysis of the preparation of 6a, at different intervals of time, has shown that 6a is stable under physiologic conditions (PBS, pH 7.4), at least for a period of 24 h.

## [^99mTc (κ^3-H3B(Tim^Me))(CO)3] [complex 6a]
  stable under physiologic conditions, period: ≥ 24 h
